From paper PMC12645437, “Orthogonal IMiD-Degron Pairs Induce Selective Protein Degradation in Cells” (ACS Chemical Biology, 2025)

How the values were obtained:
[1] = biological target: FEVP mutant ZF degron fused to EGFP (Homo sapiens, UniProt Q96SW2+Q9UKT9, N149E/Q147F/Q150V/S154P); test: Ratiometric EGFP:mCherry flow cytometry degradation assay, 18 h
[2] = biological target: WDIA mutant ZF degron fused to EGFP (Homo sapiens, UniProt Q96SW2+Q9UKT9, N149D/Q147W/Q150I/S154A); test: as above
Jurkat cells = test: Compound cellular stability HPLC assay; format: in vitro ADME, human; conditions: 25 μM
Description: We hypothesized that the time-dependent variation in DC50 values for compound 23 might result from instability in the cellular environment or export from the cells, leading to a lower cellular concentration after the 24 h period. To assess its cellular stability, we incubated Jurkat cells with 25 μM of compound 23 and analyzed how much compound was recovered from the cells after 0.5, 6, and 24 h (Figure S21) using HPLC analysis. […] The data also indicate that compound 23 is being metabolized, transported out of the cells, or both, over a 24 h period, explaining the increase in DC50 value by this time point (Figure G,H).
Figure S21. Assessing crude cellular stability of compound in 23 in mammalian cells using HPLC.
Jurkat cells were incubated with 25 µM of compound 23 for 0.5 h, 6 h, or 24 h. Cells were washed
with PBS and lysed with MeOH, clarified, and analyzed by HPLC. Compound 23 presence in the
lysate was assessed using HPLC at a UV/Vis absorbance of 190 nm. After 0.5 h we observed 130
incubating at rt for 3 minutes, then reading using an EnVision multimode plate reader
(PerkinElmer). The data have been expressed as % of DMSO control. Three biological repeats
were carried out for this assay, with each biological replicate plate comprising three replicate
Compound Cellular Stability HPLC Assay
Analytical HPLC assay to identify compound 23 in mammalian cell lysate. Jurkat cells were
cultured as described previously and seeded at a density of 2.5 × 10^5 cells per well in a 6-well
plate. Cells were treated with 25 µM of compound 23 or DMSO, keeping the final concentration
either 0.5 h, 6 h, or 24 h. Cells were then pelleted, supernatant removed, and cells were washed
twice with 1 mL of PBS, centrifuging each time at 6,500 rpm on a tabletop centrifuge to avoid
prematurely lysing the cells. PBS was then removed, and cells were lysed with 100 µL of HPLC- […]
0.1% formic acid. […] Samples were read using a Shimadzu system […]
processed using LabSolutions (Version 5.117). Sample components were measured using the UV
absorbance at 190 nm and 254 nm. The reported analysis is the UV absorbance at 190 nm. […]

Sequence of FEVP mutant ZF degron fused to EGFP (Q9UKT9 130-189 Q147F/N149E/Q150V/S154P): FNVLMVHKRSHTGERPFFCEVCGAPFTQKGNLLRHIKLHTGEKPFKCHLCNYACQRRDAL
Sequence of FEVP mutant ZF degron fused to EGFP (Q96SW2 whole entry, the tested form may be a part): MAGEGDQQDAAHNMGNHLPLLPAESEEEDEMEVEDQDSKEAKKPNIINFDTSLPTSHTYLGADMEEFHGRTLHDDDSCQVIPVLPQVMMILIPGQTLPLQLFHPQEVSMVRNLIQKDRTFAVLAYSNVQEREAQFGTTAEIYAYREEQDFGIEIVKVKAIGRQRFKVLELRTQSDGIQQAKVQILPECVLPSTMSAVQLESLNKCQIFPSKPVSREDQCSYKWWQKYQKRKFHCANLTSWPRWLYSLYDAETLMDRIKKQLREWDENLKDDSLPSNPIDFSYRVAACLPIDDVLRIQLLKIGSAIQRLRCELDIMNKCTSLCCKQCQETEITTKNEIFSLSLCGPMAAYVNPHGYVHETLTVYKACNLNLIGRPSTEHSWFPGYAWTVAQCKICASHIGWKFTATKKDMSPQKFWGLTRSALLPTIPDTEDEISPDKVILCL
Sequence of FEVP mutant ZF degron fused to EGFP (Q16531 whole entry partner, the tested form may be a part): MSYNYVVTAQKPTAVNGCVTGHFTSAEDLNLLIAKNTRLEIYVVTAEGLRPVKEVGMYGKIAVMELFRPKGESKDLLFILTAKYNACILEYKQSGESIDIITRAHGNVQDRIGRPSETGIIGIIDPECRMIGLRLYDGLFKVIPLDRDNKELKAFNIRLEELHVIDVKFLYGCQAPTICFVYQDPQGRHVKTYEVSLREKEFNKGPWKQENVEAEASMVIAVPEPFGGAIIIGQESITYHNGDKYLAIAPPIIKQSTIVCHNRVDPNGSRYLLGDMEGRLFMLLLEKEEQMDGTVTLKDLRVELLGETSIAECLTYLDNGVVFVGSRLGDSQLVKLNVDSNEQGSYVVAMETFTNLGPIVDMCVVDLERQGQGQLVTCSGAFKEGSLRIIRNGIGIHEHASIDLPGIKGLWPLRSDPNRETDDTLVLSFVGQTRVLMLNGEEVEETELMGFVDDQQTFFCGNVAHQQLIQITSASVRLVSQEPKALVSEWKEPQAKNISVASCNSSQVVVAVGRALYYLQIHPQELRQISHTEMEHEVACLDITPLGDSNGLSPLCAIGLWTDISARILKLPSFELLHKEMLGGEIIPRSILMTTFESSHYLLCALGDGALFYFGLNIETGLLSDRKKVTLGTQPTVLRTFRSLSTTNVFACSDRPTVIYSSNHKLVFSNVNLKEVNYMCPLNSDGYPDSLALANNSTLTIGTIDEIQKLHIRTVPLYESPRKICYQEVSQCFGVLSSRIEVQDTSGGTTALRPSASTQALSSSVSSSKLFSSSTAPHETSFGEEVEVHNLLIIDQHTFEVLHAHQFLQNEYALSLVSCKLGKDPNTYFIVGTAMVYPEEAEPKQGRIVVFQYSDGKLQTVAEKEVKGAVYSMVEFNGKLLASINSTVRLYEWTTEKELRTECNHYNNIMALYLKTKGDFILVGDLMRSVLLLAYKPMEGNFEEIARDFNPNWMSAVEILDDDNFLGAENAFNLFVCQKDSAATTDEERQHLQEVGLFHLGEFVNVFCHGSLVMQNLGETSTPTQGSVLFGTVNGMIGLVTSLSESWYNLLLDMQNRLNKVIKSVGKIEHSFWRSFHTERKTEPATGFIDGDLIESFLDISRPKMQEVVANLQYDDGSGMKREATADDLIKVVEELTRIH
Sequence of WDIA mutant ZF degron fused to EGFP (Q9UKT9 130-189 Q147W/N149D/Q150I/S154A): as the sequence (Q9UKT9 130-189 Q147F/N149E/Q150V/S154P) above, with F18W, E20D, V21I, P25A counted along it
Sequence of WDIA mutant ZF degron fused to EGFP (Q96SW2 whole entry, the tested form may be a part): as the sequence (Q96SW2 whole entry, the tested form may be a part) above
Sequence of WDIA mutant ZF degron fused to EGFP (Q16531 whole entry partner, the tested form may be a part): as the sequence (Q16531 whole entry partner, the tested form may be a part) above

Row | SMILES | Selectivity (WT/mutant) ([1]; DC50(WT)/DC50(FEVP)) | DC50 ([1]; FEVP, Jurkat, 18 h) [nM] | pDC50 ([1]; FEVP, Jurkat, 18 h) | Selectivity (WT/mutant) ([2]; DC50(WT)/DC50(WDIA)) | DC50 ([2]; WDIA, Jurkat, 18 h) [nM] | pDC50 ([2]; WDIA, Jurkat, 18 h) | compound recovered from cells (HPLC) (Jurkat cells; after 0.5 h) [nM] | compound recovered from cells (HPLC) (Jurkat cells; after 6 h) [nM] | compound recovered from cells (HPLC) (Jurkat cells; after 24 h)
1 | CC(C)(C)c1ccc2c(c1)C(=O)N(C1CCC(=O)NC1=O)C2=O (stereo not drawn) [Compound 19] | 15.1 | 50.1 | 7.30 | – | – | – | – | – | –
2 | CN1CCN(c2ccc3c(c2)C(=O)N(C2CCC(=O)NC2=O)C3=O)CC1 (stereo not drawn) [Compound 23] | – | – | – | 22.0 | 28.8 | 7.54 | 130 | 30 | almost no compound remaining
